ChEMBL document CHEMBL3885881, “DrugMatrix”

Organism: Rattus norvegicus
Assay: DrugMatrix - Regimen: Daily Repeat
Type: toxicity, organism-based, Sprague-Dawley
Set-up: regimen Daily Repeat, gender Male, age 6-8 weeks
Conditions: in vivo, po, route oral GAVAGE, […]; for ABSOLUTE BASOPHIL / ABSOLUTE EOSINOPHIL / ABSOLUTE LYMPHOCYTE / ABSOLUTE MONOCYTE / ABSOLUTE SEGMENTED NEUTROPHIL / BASOPHIL / EOSINOPHIL / ERYTHROCYTE COUNT / HEMATOCRIT / HEMOGLOBIN / LEUKOCYTE COUNT / LYMPHOCYTE / MEAN CORPUSCULAR HEMOGLOBIN / MEAN CORPUSCULAR HEMOGLOBIN CONCENTRATION / MEAN CORPUSCULAR VOLUME / MONOCYTE / NEUTROPHIL / NUCLEATED RED BLOOD CELLS / PLATELET COUNT: tissue Blood; for ALANINE AMINOTRANSFERASE / ALBUMIN / ALKALINE PHOSPHATASE / ASPARTATE AMINOTRANSFERASE / BLOOD UREA NITROGEN / CARBON DIOXIDE / CHLORIDE / CHOLESTEROL / CREATINE PHOSPHOKINASE / CREATININE / GLUCOSE / LACTATE DEHYDROGENASE / LIPASE / PHOSPHORUS / POTASSIUM / SODIUM / TOTAL BILIRUBIN / TOTAL PROTEIN / URIC ACID: tissue Plasma
[1] = 0 mg/kg, 72 h, dose level Control, time 3 day
[2] = 0 mg/kg, 120 h, dose level Control, time 5 day
[3] = 5 mg/kg, 72 h, dose level Low, time 3 day

## CC(C)n1c(/C=C/C(O)CC(O)CC(=O)O)c(-c2ccc(F)cc2)c2ccccc21 (centres undefined) [FLUVASTATIN]
[1]
  ABSOLUTE BASOPHIL: 0 CELLS/uL
  ABSOLUTE EOSINOPHIL: 33 CELLS/uL
  ABSOLUTE LYMPHOCYTE: 9048.5 CELLS/uL
  ABSOLUTE MONOCYTE: 80.17 CELLS/uL
  ABSOLUTE SEGMENTED NEUTROPHIL: 1521.67 CELLS/uL
  BASOPHIL: 0%
  EOSINOPHIL: 0.17%
  ERYTHROCYTE COUNT: 5.46 x10E6/uL
  HEMATOCRIT: 32.87%
  HEMOGLOBIN: 12.95 G/DL
  LEUKOCYTE COUNT: 10.68 x10E3/uL
  LYMPHOCYTE: 86.67%
  MEAN CORPUSCULAR HEMOGLOBIN: 23.72 pg
  MEAN CORPUSCULAR HEMOGLOBIN CONCENTRATION: 39.4 G/DL
  MEAN CORPUSCULAR VOLUME: 60.18 fL
  MONOCYTE: 0.83%
  NEUTROPHIL: 12.33%
  NUCLEATED RED BLOOD CELLS: 0 /100WBC
  PLATELET COUNT: 1211.33 x10E3/uL
  ALANINE AMINOTRANSFERASE: 76.67 u/L
  ALBUMIN: 3.93 G/DL
  ALKALINE PHOSPHATASE: 317.17 u/L
  ASPARTATE AMINOTRANSFERASE: 81.17 u/L
  BLOOD UREA NITROGEN: 12.33 mg/dL
  CARBON DIOXIDE: 31.17 mmol/L
  CHLORIDE: 98.33 MEQ/L
  CHOLESTEROL: 67.17 mg/dL
  CREATINE PHOSPHOKINASE: 312.33 u/L
  CREATININE: 0.19 mg/dL
  GLUCOSE: 165.5 mg/dL
  LACTATE DEHYDROGENASE: 94.5 u/L
  LIPASE: 9.83 u/L
  PHOSPHORUS: 10.1 mg/dL
  POTASSIUM: 5.16 MEQ/L
  SODIUM: 143.02 MEQ/L
  TOTAL BILIRUBIN: 0.2 mg/dL
  TOTAL PROTEIN: 5.88 G/DL
  URIC ACID: 0.68 mg/dL
[2]
  ABSOLUTE BASOPHIL: 0 CELLS/uL
  ABSOLUTE EOSINOPHIL: 14.67 CELLS/uL
  ABSOLUTE LYMPHOCYTE: 9629.83 CELLS/uL
  ABSOLUTE MONOCYTE: 72.5 CELLS/uL
  ABSOLUTE SEGMENTED NEUTROPHIL: 1049.67 CELLS/uL
  BASOPHIL: 0%
  EOSINOPHIL: 0.17%
  ERYTHROCYTE COUNT: 5.36 x10E6/uL
  HEMATOCRIT: 33.82%
  HEMOGLOBIN: 13.48 G/DL
  LEUKOCYTE COUNT: 10.77 x10E3/uL
  LYMPHOCYTE: 90.17%
  MEAN CORPUSCULAR HEMOGLOBIN: 25.28 pg
  MEAN CORPUSCULAR HEMOGLOBIN CONCENTRATION: 39.92 G/DL
  MEAN CORPUSCULAR VOLUME: 63.3 fL
  MONOCYTE: 0.67%
  NEUTROPHIL: 9%
  NUCLEATED RED BLOOD CELLS: 0.17 /100WBC
  PLATELET COUNT: 1275.33 x10E3/uL
  ALANINE AMINOTRANSFERASE: 93.67 u/L
  ALBUMIN: 4.17 G/DL
  ALKALINE PHOSPHATASE: 402.5 u/L
  ASPARTATE AMINOTRANSFERASE: 122.83 u/L
  BLOOD UREA NITROGEN: 14.75 mg/dL
  CARBON DIOXIDE: 26.4 mmol/L
  CHLORIDE: 98.5 MEQ/L
  CHOLESTEROL: 57.5 mg/dL
  CREATINE PHOSPHOKINASE: 305.17 u/L
  CREATININE: 0.21 mg/dL
  GLUCOSE: 142 mg/dL
  LACTATE DEHYDROGENASE: 83.5 u/L
  LIPASE: 85.83 u/L
  PHOSPHORUS: 8.18 mg/dL
  POTASSIUM: 5.46 MEQ/L
  SODIUM: 144 MEQ/L
  TOTAL BILIRUBIN: 0.25 mg/dL
  TOTAL PROTEIN: 5.63 G/DL
  URIC ACID: 0.8 mg/dL
[3]
  ABSOLUTE BASOPHIL: 0 CELLS/uL
  ABSOLUTE EOSINOPHIL: 0 CELLS/uL
  ABSOLUTE LYMPHOCYTE: 7777.67 CELLS/uL
  ABSOLUTE MONOCYTE: 91 CELLS/uL
  ABSOLUTE SEGMENTED NEUTROPHIL: 864.67 CELLS/uL
  BASOPHIL: 0%
  EOSINOPHIL: 0%
  ERYTHROCYTE COUNT: 5.27 x10E6/uL
  HEMATOCRIT: 32.97%
  HEMOGLOBIN: 13.1 G/DL
  LEUKOCYTE COUNT: 8.73 x10E3/uL
  LYMPHOCYTE: 89%
  MEAN CORPUSCULAR HEMOGLOBIN: 24.87 pg
  MEAN CORPUSCULAR HEMOGLOBIN CONCENTRATION: 39.77 G/DL
  MEAN CORPUSCULAR VOLUME: 62.47 fL
  MONOCYTE: 1%
  NEUTROPHIL: 10%
  NUCLEATED RED BLOOD CELLS: 0 /100WBC
  PLATELET COUNT: 1163 x10E3/uL
  ALANINE AMINOTRANSFERASE: 67 u/L
  ALBUMIN: 3.93 G/DL
  ALKALINE PHOSPHATASE: 305.67 u/L
  ASPARTATE AMINOTRANSFERASE: 95.33 u/L
  BLOOD UREA NITROGEN: 12 mg/dL
  CARBON DIOXIDE: 30.67 mmol/L
  CHLORIDE: 98 MEQ/L
  CHOLESTEROL: 76 mg/dL
  CREATINE PHOSPHOKINASE: 453.67 u/L
  CREATININE: 0.18 mg/dL
  GLUCOSE: 193.33 mg/dL
  LACTATE DEHYDROGENASE: 209.33 u/L
  LIPASE: 9.67 u/L
  PHOSPHORUS: 10.07 mg/dL
  POTASSIUM: 5.48 MEQ/L
  SODIUM: 142.9 MEQ/L
  TOTAL BILIRUBIN: 0.2 mg/dL
  TOTAL PROTEIN: 5.8 G/DL
  URIC ACID: 0.63 mg/dL
